No end group written: not given here.
Test system: endogenous CARP-1
Test: Anti-EGFP co-immunoprecipitation with endogenous CARP-1
Assay type: cell-based, human
Conditions: MDA-MB-468 stable subline, anti-EGFP IP, anti-CARP-1 (α2) WB; Figure 5D
Procedure: Logarithmically growing cells were either untreated or treated with different agents for various time periods. The cells were lysed to prepare protein extracts. IP was carried out by incubating approximately 1 mg of the protein lysate with appropriate antibodies. The immunoprecipitates were then analyzed by SDS-PAGE, followed by WB with respective, interacting protein. For Gst-pulldown, Gst-H2AX or various His-TAT-HA-tagged CARP-1 peptides were generated in Escherichia coli (E. coli) BL21 cells essentially as described by us previously. Briefly, the competent E. coli BL-21 (DE3) pLysS cells were transformed separately with various recombinant pGEX-4T-1 or pTAT-HA constructs. The transformed cells were then subjected to selection by combined presence of ampicillin and chloramphenicol; various isolates for each transformation were obtained and bacterial lysates were characterized for expression of fusion peptides. Cells from each isolate were grown in 4 mL of LB medium containing ampicillin only until the optical density (OD)600 reached 0.4–0.8. Expression of fusion peptides was induced over 2–4 h incubation periods after Isopropyl β-D-1-thiogalactopyranoside (IPTG) addition. […]
Figure 5 Fine Mapping of H2AX/CARP-1 interacting epitopes. […] Following stringent washing, the bound proteins were analyzed with WB using anti-HA (upper) or anti-Gst (middle) antibodies. […]

Q: Which “in-cell interaction with endogenous CARP-1” value does the source give for “EGFP-H2AX (1–35): EGFP-tagged fusion protein stably expressed in MDA-MB-468 and HeLa sublines (MSGRGKTGGKARAKAKSRSSRAGLQFPVGRVHRLL; also: EGFP fusion, end not given here; UniProt P16104 1-35, looked up, fragment)” here?
A: robust, in vivo interaction

Source: article PMC6406907, “A H2AX–CARP-1 Interaction Regulates Apoptosis Signaling Following DNA Damage” (Cancers, 2019)
